Experimental findings from ChEMBL document CHEMBL1136820, “The role of 2',3'-unsaturation on the antiviral activity of anti-HIV nucleosides against 3TC-resistant mutant (M184V)” (Bioorg Med Chem Lett, 2003) are described below.

Broadly, the EC90 is the point of the concentration-response curve where the effect stands at 90%. Read a high EC90 as weaker potency.

Experiment [1] has as its system HIV-1 reverse transcriptase (Human immunodeficiency virus 1). Nature of the experiment: Ratio for inhibition of HIV-1 RT to that of type and HIV-1 RT M184V mutant was determined.
The subject of experiment [2] is Human immunodeficiency virus type 1 reverse transcriptase (Human immunodeficiency virus 1), Q72547 [M184V]. Description: In vitro antiviral activity against HIV-1 Reverse transcriptase M184V mutant.
In experiment [3] the target is Human immunodeficiency virus type 1 reverse transcriptase (Human immunodeficiency virus 1) (UniProt Q72547). Description: In vitro antiviral activity against HIV-1 Reverse transcriptase wild type.

For `Nc1nc(=O)n([C@@H]2C=C[C@H](CO)O2)cc1F`, the FI in experiment [1] worked out at 0.8.

For `Nc1ccn(C2SC(CO)C=C2F)c(=O)n1` (configuration not stated), the 90% effect concentration (EC90) in experiment [2] stood at 125 µM; in experiment [3], 5 µM. Besides, the FI in experiment [1] was 25.

In the case of `Nc1ccn([C@@H]2O[C@H](CO)C=C2F)c(=O)n1`, the EC90 in experiment [2] came to 1.8 µM; in experiment [3], 8 µM. Moreover, in experiment [1], the FI turned out to be 0.23.
